Experimental data from US12296030B2, “Conjugates and their use as imaging agents” (priority 2019, dated 2025).

Key:
[1] = test system: quiescent endothelial cells; details: in vitro; cited from earlier work
angiogenesis = details: in vivo; cited from earlier work
proliferating cells = details: cited from earlier work
nodal metastases = experiment: FDG-PET in patient 3; format: in vivo, human; details: patient 3, 60 min after 256 MBq

Compound	toxicity to quiescent endothelial cells [1]	effect on angiogenesis (angiogenesis)	toxicity to proliferating cells (proliferating cells)	FDG-PET finding (nodal metastases)
N[C@@H](CCC(=O)N[C@@H](CSCC(=O)Nc1ccc([As](O)O)cc1)C(=O)NCC(=O)O)C(=O)O [GSAO, 4-(N—(S-glutathionylacetyl)amino)phenylarsenous acid]	nontoxic	inhibits angiogenesis in vivo	toxic	
O=C[C@H](F)[C@@H](O)[C@H](O)[C@H](O)CO [FDG, 2-fluoro-2-deoxyglucose]				two intensely metabolically active nodal metastases
